Measured values published in patent US20220144853A1, “IMIDAZOLINE DERIVATIVES AS CXCR4 MODULATORS” (Université de Paris, priority 2019, published 2022).
Structures can show the parent of a compound that is named as a salt.

Columns and labels:
[1] = system: IFN production by activated PBMCs; assay: IFN production by R848-activated PBMCs from healthy donors, twINNE reporter cell line; assay type: cell-based, human; details: Homo sapiens, PBMC, means of two results over 2 healthy donors, R848 5 μg/mL, IT1t: mean over all experiments, read-out: IC50 of anti-inflammatory activity (IFN production)
Experimental: 2) The blood from healthy donors was also obtained from “Etablissement Français du Sang” (convention #19/EFS/029), Paris, France.
In vitro experiments were performed using human peripheral blood mononuclear cells (PBMCs) isolated by density centrifugation from peripheral blood leukocyte separation medium, lymphoprep (Stemcell Technologies).
PBMCs were cultured in RPMI 1640 (Sigma-Aldrich, MO, USA) containing 10% heat-inactivated fetal bovine serum (Sigma-Aldrich, MO, USA) at 37° C./5% CO2.
(§1) 2) The PBMCs used herein were prepared as described in part A “immune cells preparation”, section 2) above. PBMCs were seeded at 4.10^6/mL. […] Cells were then stimulated with the TLR7/8 agonist resiquimod—R848 (Sigma-Aldrich, MO, USA) at 5 μg/mL.
2) To quantify the secretion of functional IFN, a biological assay based on a stable cell line where luciferase reporter gene is controlled by five Interferon-Stimulated Response Elements (twINNE cell line) was used. It is important to note that the twINNE cell line is the same as the above mentioned STING-37 cell line but with constitutively expressed nanoluciferase. First, supernatants of R848-stimulated PBMCs (see part B, section 2) above) were harvested after 24 h of stimulation and frozen at −20° C. for storage. Then, supernatants were dispensed in culture wells of a 96-well plate containing 35.103 twINNE cells per well in Dulbecco's Modified Eagle's Medium supplemented with 10% Foetal Bovine Serum, 100 U/mL Penicillin and 100 μg/mL Streptomycin (1% Pen-Strep) and 1 mM glutamine (Sigma-Aldrich, MO, USA) at 37° C./5% […]. After 24 h of culture, luciferase activity was determined by adding 60 μL of Bright-Go reagents (Promega, Wisconsin, USA) to culture wells and measuring bioluminescence with EnSpire Multimode Plate Reader (PerkinElmer, Massachusetts, USA). When stated, for IC50 calculation, dose-response curves fitted using the nonlin fit (variable slope) analysis in GraphPad Prism software (GraphPad Software, California, USA).

IL-1β = assay: Cytokine production by R848-activated PBMCs, LEGENDplex Human Inflammation panel 1: IL-1β; assay type: cell-based; details: Homo sapiens, PBMC, PBMCs from 2 healthy donors, R848 overnight, read-out: IC50 (μM) 1L-1β
Experimental: as §1
(§2) Cytokine expression levels were assessed using LEGENDplex Human inflammation panel 1 Kit (BioLegend, California, USA), which is a bead-based multiplex assay, using fluorescence-encoded beads. […] First, supernatants of R848-stimulated PBMCs were harvested after 24 h of stimulation and frozen at −20° C. for storage. Supernatants were dispensed into a 96-well V-bottom plate. Protocol pursued as per manufacturer recommendations (Manual for BioLegend LEGENDplex, Multi-Analyte Flow Assay Kit, Human Inflammation Panel 1, version 750000393_R01).

IFN-γ = assay: Cytokine production by R848-activated PBMCs, LEGENDplex Human Inflammation panel 1: IFN-γ; assay type: cell-based; details: Homo sapiens, PBMC, PBMCs from 2 healthy donors, R848 overnight
Experimental: as §1, §2

TNF-α = assay: Cytokine production by R848-activated PBMCs, LEGENDplex Human Inflammation panel 1: TNF-α; assay type: cell-based; details: Homo sapiens, PBMC, PBMCs from 2 healthy donors, R848 overnight
Experimental: as §1, §2

IL-10 = assay: Cytokine production by R848-activated PBMCs, LEGENDplex Human Inflammation panel 1: IL-10; assay type: cell-based; details: Homo sapiens, PBMC, PBMCs from 2 healthy donors, R848 overnight
Experimental: as §1, §2

IL-12p70 = assay: Cytokine production by R848-activated PBMCs, LEGENDplex Human Inflammation panel 1: IL-12p70; assay type: cell-based; details: Homo sapiens, PBMC, PBMCs from 2 healthy donors, R848 overnight
Experimental: as §1, §2

IL-18 = assay: Cytokine production by R848-activated PBMCs, LEGENDplex Human Inflammation panel 1: IL-18; assay type: cell-based; details: Homo sapiens, PBMC, PBMCs from 2 healthy donors, R848 overnight
Experimental: as §1, §2

IL-23 = assay: Cytokine production by R848-activated PBMCs, LEGENDplex Human Inflammation panel 1: IL-23; assay type: cell-based; details: Homo sapiens, PBMC, PBMCs from 2 healthy donors, R848 overnight
Experimental: as §1, §2

[2] = system: IL-1β, IFN-γ, TNF-α, IL-10, IL-12p70, IL-18 and IL-23; assay: Cytokine production by R848-activated PBMCs, LEGENDplex: statements on all inhibited cytokines together; assay type: cell-based; details: Homo sapiens, PBMC, PBMCs from two healthy donors, read-out: IC50 on the expression of cytokines, on all such cytokines
Experimental: as §1, §2

Question: Which melting point does the source give for `C1=C(CSC2=N[C@H]3COC[C@H]3N2)N2C(=N[C@@H]3COC[C@@H]32)S1` (mixture of isomers) (as salt: hydrochloride) [Example 36, mixture of (4aS,7aR)-3-((((3aS,6aR)-3a,4,6,6a-tetrahydro-1H-furo[3,4-d]imidazol-2-yl)thio)methyl)-4a,5,7,7a-tetrahydrofuro[3′,4′:4,5]imidazo[2,1-b]thiazole dihydrochloride and (4aR,7aS)-3-((((3aR,6aS)-3a,4,6,6a-tetrahydro-1H-furo[3,4-d]imidazol-2-yl)thio)methyl)-4a,5,7,7a-tetrahydrofuro[3′,4′: 4,5]imidazo[2,1-b]thiazole dihydrochloride] here?
Answer: > 250 °C

Question: With `CC1(C)CN=C(SCC2=CSC3=N[C@H]4CCCC[C@@H]4N23)N1` (racemic) (as salt: hydrochloride) [Example 7, trans-3-(((4,4-dimethyl-4,5-dihydro-1H-imidazol-2-yl)thio)methyl)-4a,5,6,7,8,8a-hexahydrobenzo[4,5]imidazo[2,1-b]thiazole dihydrochloride] as the compound, how does the melting point read?
Answer: 248 to 252 °C

Question: With `CC1(C)CN=C(SCC2=CSC3=N[C@H]4CCCC[C@H]4N23)N1` (racemic) (as salt: hydrochloride) [Example 10, cis-3-(((4,4-dimethyl-4,5-dihydro-1H-imidazol-2-yl)thio)methyl)-4a,5,6,7,8,8a-hexahydrobenzo[4,5]imidazo[2,1-b]thiazole dihydrochloride] as the compound, how does the melting point read?
Answer: 210 to 215 °C

Question: For `CC1(C)CN=C(SCC2=CSC3=N[C@H]4CCCC(C4)N23)N1` (racemic) (as salt: hydrochloride) [Example 23, cis-3-(((5,5-dimethyl-4,5-dihydro-1H-imidazol-2-yl)thio)methyl)-6,7,8,9-tetrahydro-5H-5,9-methanothiazolo[3,2-a][1,3]diazocine dihydrochloride], which melting point is on record?
Answer: 240 to 245 °C

Question: For `CCCCC1CN=C(SCC2=CSC3=N[C@H]4CCCCC4N23)N1` (mixture of isomers) (as salt: hydrochloride) [Example 54, trans-3-(((5-butyl-4,5-dihydro-1H-imidazol-2-yl)thio)methyl)-4a,5,6,7,8,8a-hexahydrobenzo[4,5]imidazo[2,1-b]thiazole dihydrochloride], which melting point is on record?
Answer: 226 to 230 °C

Question: Which melting point does the source give for `C1=C(CSC2=NCC(Cc3ccccc3)N2)N2C(=N[C@H]3CCCCC32)S1` (mixture of isomers) (as salt: hydrochloride) [Example 55, trans-3-(((5-benzyl-4,5-dihydro-1H-imidazol-2-yl)thio)methyl)-4a,5,6,7,8,8a-hexahydrobenzo[4,5]imidazo[2,1-b]thiazole dihydrochloride] here?
Answer: 137 to 142 °C

Question: For `C1=C(CSC2=NCCN2)N2C(=N[C@H]3CCCCC32)S1` (mixture of isomers) (as salt: hydrochloride) [Example 59, trans-3-(((4,5-dihydro-1H-imidazol-2-yl)thio)methyl)-4a,5,6,7,8,8a-hexahydrobenzo[4,5]imidazo[2,1-b]thiazole dihydrochloride], which melting point is on record?
Answer: 115 to 120 °C

Question: With `CC(C)[C@@H]1N=C2SC=C(CSC3=NCC(C)(C)N3)N2[C@H]1C(C)C` (racemic) (as salt: hydrochloride) [Example 62, trans-3-(((5,5-dimethyl-4,5-dihydro-1H-imidazol-2-yl)thio)methyl)-5,6-diisopropyl-5,6-dihydroimidazo[2,1-b]thiazole dihydrochloride] as the compound, how does the melting point read?
Answer: 237 to 241 °C

Question: With `CN1CCN=C1SCC1=CSC2=NC3CCCCC3N12` (racemic) (as salt: hydrochloride) [Example 63, trans-3-(((1-methyl-4,5-dihydro-1H-imidazol-2-yl)thio)methyl)-4a,5,6,7,8,8a-hexahydrobenzo[4,5]imidazo[2,1-b]thiazole dihydrochloride] as the compound, how does the melting point read?
Answer: 204 to 207 °C

Question: Which results are given for `CC1(C)CN=C(SCC2=CSC3=N[C@H]4CCCC[C@@H]4N23)N1` (racemic) [Example 7, trans-3-(((4,4-dimethyl-4,5-dihydro-1H-imidazol-2-yl)thio)methyl)-4a,5,6,7,8,8a-hexahydrobenzo[4,5]imidazo[2,1-b]thiazole dihydrochloride]?
Answer: IC50 [1]: ≤ 10 µM; IC50 (IL-1β): 9.9 µM; IC50 (IFN-γ): 9.8 µM; IC50 (TNF-α): 20 µM; IC50 (IL-10): 5.6 µM; IC50 (IL-12p70): 6.7 µM; IC50 (IL-18): 4.2 µM; IC50 (IL-23): 2.9 µM; IC50 [2]: ≤ 20 µM

Question: For `CN1CCN=C1SCC1=CSC2=NC3CCCCC3N12` (racemic) [Example 63, trans-3-(((1-methyl-4,5-dihydro-1H-imidazol-2-yl)thio)methyl)-4a,5,6,7,8,8a-hexahydrobenzo[4,5]imidazo[2,1-b]thiazole dihydrochloride], which IC50 [1] is on record?
Answer: ≤ 10 µM

Question: What about the IC50 (IL-1β) of the same compound?
Answer: 2.8 µM

Question: What about the IC50 (IFN-γ) of the same compound?
Answer: 2.7 µM

Question: What about the IC50 (IL-12p70) of the same compound?
Answer: 1.2 µM

Question: And the IC50 (IL-18)?
Answer: 1.3 µM

Question: And the IC50 (IL-23)?
Answer: 0.69 µM

Question: For `CC1(C)CN2C(CSC3=N[C@@H]4CCCC[C@H]4N3)=CSC2=N1` [Example 3, 3-((((3aR,7aR)-3a,4,5,6,7a-hexahydro-1H-benzo[d]imidazol-2-yl)thio)methyl)-6,6-dimethyl-5,6-dihydroimidazo[2,1-b]thiazole dihydrochloride], which IC50 [1] is on record?
Answer: ≤ 10 µM

Question: And the IC50 (IL-1β)?
Answer: 12 µM

Question: What about the IC50 (IFN-γ) of the same compound?
Answer: 7.2 µM

Question: What about the IC50 (TNF-α) of the same compound?
Answer: 11 µM

Question: And the IC50 (IL-10)?
Answer: 11 µM

Question: And the IC50 (IL-12p70)?
Answer: 2.6 µM

Question: And the IC50 (IL-18)?
Answer: 6.9 µM

Question: What about the IC50 (IL-23) of the same compound?
Answer: 1.7 µM

Question: What about the IC50 [2] of the same compound?
Answer: ≤ 20 µM

Question: For `CC1(C)CN2C(CSC3=NCC(Cc4ccccc4)N3)=CSC2=N1` (centres unmarked) [Example 17, 3-(((5-benzyl-4,5-dihydro-1H-imidazol-2-yl)thio)methyl)-6,6-dimethyl-5,6-dihydroimidazo[2,1-b]thiazole dihydrochloride], which IC50 [1] is on record?
Answer: ≤ 10 µM

Question: What about the IC50 (IL-1β) of the same compound?
Answer: 3.6 µM

Question: What about the IC50 (IFN-γ) of the same compound?
Answer: 3.2 µM

Question: What about the IC50 (TNF-α) of the same compound?
Answer: 4.6 µM

Question: What about the IC50 (IL-10) of the same compound?
Answer: 2.7 µM

Question: What about the IC50 (IL-12p70) of the same compound?
Answer: 0.34 µM

Question: And the IC50 (IL-18)?
Answer: 0.54 µM

Question: And the IC50 (IL-23)?
Answer: 2.2 µM

Question: What about the IC50 [2] of the same compound?
Answer: ≤ 20 µM

Question: For `CC1(C)CN=C(SCC2=CSC3=NC(Cc4ccccc4)CN23)N1` (centres unmarked) [Example 18, 6-benzyl-3-(((5,5-dimethyl-4,5-dihydro-1H-imidazol-2-yl)thio)methyl)-5,6-dihydroimidazo[2,1-b]thiazole dihydrochloride], which IC50 [1] is on record?
Answer: 10 to 31 µM

Question: And the IC50 (IL-1β)?
Answer: 5.6 µM

Question: And the IC50 (IFN-γ)?
Answer: 6.1 µM

Question: And the IC50 (TNF-α)?
Answer: 7.9 µM

Question: And the IC50 (IL-10)?
Answer: 3.7 µM

Question: What about the IC50 (IL-12p70) of the same compound?
Answer: 3.6 µM

Question: What about the IC50 (IL-18) of the same compound?
Answer: 0.2 µM

Question: What about the IC50 (IL-23) of the same compound?
Answer: 2.9 µM

Question: And the IC50 [2]?
Answer: ≤ 20 µM

Question: Which IC50 [1] does the source give for `CC1(C)CN2C(CCCSC3=NCC(C)(C)N3)=CSC2=N1.Cl.Cl` [Example 64, 3-(3-((5,5-dimethyl-4,5-dihydro-1H-imidazol-2-yl)thio)propyl)-6,6-dimethyl-5,6-dihydroimidazo[2,1-b]thiazole dihydrochloride] here?
Answer: ≥ 31 µM

Question: What about the melting point of the same compound?
Answer: 85 to 95 °C
